According to BindingDB's records for doi:10.1111/cbdd.12842 (Jagiellonian University Medical College, 2017):
Where a name gives a salt, the structure may show the parent alone.

Target: T1, 5-hydroxytryptamine receptor 1A (Homo sapiens, UniProt P08908)
T1 sequence (P08908 whole entry): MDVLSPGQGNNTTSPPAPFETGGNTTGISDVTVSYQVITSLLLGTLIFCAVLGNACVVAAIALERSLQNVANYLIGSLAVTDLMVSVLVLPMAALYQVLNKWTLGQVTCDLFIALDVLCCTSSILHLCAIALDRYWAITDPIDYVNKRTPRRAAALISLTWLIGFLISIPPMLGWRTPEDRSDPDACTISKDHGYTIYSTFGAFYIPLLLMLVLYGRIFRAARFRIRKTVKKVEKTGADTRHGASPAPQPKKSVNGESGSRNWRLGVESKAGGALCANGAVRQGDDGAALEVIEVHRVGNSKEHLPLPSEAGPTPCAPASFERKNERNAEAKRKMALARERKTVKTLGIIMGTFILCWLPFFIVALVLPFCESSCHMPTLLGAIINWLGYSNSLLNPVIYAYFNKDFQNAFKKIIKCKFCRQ
Test: Radioligand Binding Assay ([3H]-8-OH-DPAT)
Settings: pH 7.4
Procedure: Binding experiments were conducted in 96-well microplates in a total volume of 250 μL of buffer (50 mM Tris-HCl pH 7.4, 10 mM MgCl2, 0.5 mM EDTA). Reaction mix included 50 μL solution of test compound, 50 μL of [3H]-8-OH-DPAT, and 150 μL of diluted membranes or the tissue suspension. Incubation condition: 60 min at 27 °C.

Ki [nM]	Compound
659	CCC(CO)NCCOc1ccc2oc3ccccc3c(=O)c2c1 (stereo not drawn) [R,S-2-{2-[(1-hydroxybutan-2-yl]amino)ethoxy}-9H-xanthen-9-one (9)]
320	CCC(O)CNCCOc1ccc2oc3ccccc3c(=O)c2c1 (stereo not drawn) [R,S-2-{2-[(2-hydroxybutyl)amino]ethoxy}-9H-xanthen-9-one hydrochloride (8a)]

Compound	Ki [nM]
CCC(CO)NCCCOc1ccc2oc3ccccc3c(=O)c2c1 (stereo not drawn) [R,S-2-{3-[(1-hydroxybutan-2-yl)amino]propoxy}-9H-xanthen-9-one (12)]	> 5000
